Experiments:
[1] = tested on: MDA; experiment: MDA content in HT1080 cells; assay type: cell-based, human; details: HT1080 cells, 0.1, 0.5 and 1 µM, 24 h
Method: HT1080 cells were seeded into 10‐cm diameter culture dishes at a density of 2 × 10⁶ cells overnight and then exposed to GDAz‐3 (0.1, 0.5, and 1 µM). The cells were cultured for another 24 h, and the culture medium was discarded, washed with PBS, and lysed using IP lysis buffer (Servicebio, G2038). After lysis, the samples were centrifuged at 12 000 × g for 15 min at 4 °C. The supernatant was collected, and the MDA content was determined according to the instructions of the Lipid Peroxidation MDA Assay Kit (Beyotime Biotechnology, S00131S).

[2] = target: T1, GPX4 (Homo sapiens, UniProt P36969); experiment: Ubiquitination assay of GPX4 in HT1080 cells; assay type: cell-based; set-up: determine the changes in the endogenous levels of GPX4 by western blot assay; endogenous in cells; host or cells: HT1080 fibrosarcoma cells, including siRNA-knockdown derivatives; details: 1 µM, 12 h
T1 sequence (P36969 1-170 isoform P36969-2): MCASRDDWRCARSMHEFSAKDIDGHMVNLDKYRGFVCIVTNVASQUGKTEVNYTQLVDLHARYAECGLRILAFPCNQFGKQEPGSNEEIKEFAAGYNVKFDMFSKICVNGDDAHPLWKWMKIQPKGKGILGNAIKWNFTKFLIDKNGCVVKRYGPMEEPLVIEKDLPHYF
Method: HT1080 cells were seeded in 15 cm culture dishes and allowed to adhere overnight. Then, the cells were treated with either 1 µM GDAz‐3 or an equivalent volume of DMSO for 12 h. Next, the proteasome inhibitor MG‐132 (5 µM) was added, and the cells were further incubated for 6 h. Once the incubation was completed, the cells were harvested and subjected to lysis using an IP lysis solution (#P0013J, Beyotime, Shanghai, China) to extract proteins. Then, the cell lysates were incubated with the GPX4 antibody (Proteintech, #67763‐1‐Ig, 1:100) overnight at 4 °C. Subsequently, protein A/G‐magnetic beads (#P2179, Beyotime, Shanghai, China) were added, and the mixture was incubated at 4 °C for 2 h on a rotator. After incubation, the beads were washed four times with immunoprecipitation buffer and then boiled in 1× loading buffer. The protein samples were then subjected to SDS‐PAGE analysis to evaluate the interactions between the target proteins. Finally, western blotting was used to detect proteins of interest in the co‐immunoprecipitation products. The ubiquitin assay was carried out under denaturing conditions.

COc1ccc(-c2nc(-c3cc(C(F)(F)F)cc(C(F)(F)F)c3)n(Cc3ccc(C(=O)NCCOCCOCCOCCn4cc(COc5ccc(N(C(=O)CCl)C(C(=O)NCCc6ccccc6)c6cccs6)cc5Cl)nn4)cc3)c2-c2ccc(OC)cc2)cc1 (centres unmarked) [GDAz-3, 4-((2-(3,5-bis(trifluoromethyl)phenyl)-4,5-bis(4-methoxyphenyl)-1H-imidazol-1-yl)methyl)-N-(2-(2-(2-(2-(4-((2-chloro-4-(2-chloro-N-(2-oxo-2-(phenethylamino)-1-(thiophen-2-yl)ethyl)acetamido)phenoxy)methyl)-1H-1,2,3-triazol-1-yl)ethoxy)ethoxy)ethoxy)ethyl)benzamide]
Content of MDA [1]: increased
Ubiquitination of GPX4 [2]: obviously increase the ubiquitination of GPX4
